Measured values published in publication PMC4715686 (Chemical biology & drug design, 2015).

Experiments:
[1] = Hep G2 cell viability, MTT assay; format: cell-based; conditions: human
rhodesain = rhodesain (Trypanosoma brucei rhodesiense, UniProt Q95PM0); test: Rhodesain inhibition assay; format: biochemical, T. brucei rhodesiense
[2] = test system: T. brucei brucei 427 strain; test: Antitrypanosomal activity, Alamar blue assay; format: cell-based; conditions: for IC50: Trypanosoma brucei, 24 h, read-out: IC50 T. brucei

Compound: Nc1ccc(-c2nc3ccc(Cc4ccc5nc(-c6ccc(N)cc6)[nH]c5c4)cc3[nH]2)cc1 [Compound 1, 4,4′-[methylenebis(1H-benzimidazole-6,2-diyl)]-dianiline]
- viability at 72 h, 20 µM [1]: 84.7 ± 5.79%
- IC50 (rhodesain): 890 ± 100 nM
- IC50 [2]: 5.8 ± 1 µM

Compound: O=C(c1ccccc1)c1ccc2[nH]c(-c3ccc(NC(=O)c4ccccc4Cl)cc3)nc2c1 [Compound 7, N-[4-(5-benzoyl-1H-benzimidazol-2-yl)phenyl]-2-chlorobenzamide]
- viability at 72 h, 20 µM [1]: 86.2 ± 9.67%
- IC50 (rhodesain): > 20000 nM
- inhibitory activity against rhodesain (in words) (rhodesain): did not display any inhibitory activity
- activity against T. brucei (in words) [2]: active
- selectivity for the parasite over Hep G2 cells (in words) ([2]; T. brucei vs Hep G2 cells): considerable selectivity
- IC50 [2]: 2.83 ± 0.26 µM
